From US12479836B2, “Sphingosine-1-phosphate receptor agonist, preparation method therefor, and pharmaceutical composition containing same as active ingredient” (priority 2019, dated 2025)

biological target: T1, human sphingosine-1-phosphate 1 receptor (S1P1 receptor) (Homo sapiens, UniProt P21453); assay: Ca2+ inducing ability (calcium increase, Calcium 5 assay kit) in CHO cells overexpressing human S1P1 receptor; format: cell-based
T1 construct: host or cells: CHO-K1
Experimental: Experimental Example: Evaluation of Ca^2+ Inducing Ability of a Test Compound Using a Cell Line Expressing Human Sphingosine-1-Phosphate
It is a functional test method in which a therapeutic efficacy of an agonist compound is determined by an increase in calcium in CHO (Chinese hamster ovary) cells, which overexpress human sphingosine-1-phosphate 1 receptor (S1P1 receptor) that react with sphingosine-1-phosphate (S1P). […] coupled to Gi protein that reacts with the S1P1 receptor and increases intracellular calcium concentration. CHO-K1 cells, which are used for preparing a stable cell line, show no change in the calcium concentration by S1P, and thus they are good for checking signals from human S1P receptors after transfecting the cells with each subtype of the receptors.
To prepare CHO cells which overexpress human S1P1-S1P5, human clones for each subtype having HA at the N terminal residue (S1P1: EDG010 TN00, S1P2: EDG020TN00, S1P3: EDG030TN00, S1P4: EDG060TN00, S1P5: EDG080TN00) were purchased from Missouri S&T cDNA Resource Center and co-transfected with G-protein alpha subunit (G-alpha-16) into CHO-K1 cells. After separating cells by fluorescence-activated cell sorting (FACS, LK BioScience, JSAN) using HA-antibodies (MACS, Anti-HA-PE), they were selectively cultured in the medium with 10% FBS (Gibco, USA), 0.5 mg/mL Geneticin (Gibco) and 0.2 mg/mL Hygromycin B F12 (Gibco) to obtain the desired cells.
A calcium measurement kit (Calcium 5 assay kit, Molecular Devices) was used to select an agonist compound. The principle of calcium measurement is that calcium-sensitive dyes are applied to cells, they enter into the cytoplasm of the cells during incubation, and when a ligand binds to a certain receptor to release calcium into the cytoplasm, the dyes bind to said calcium to induce fluorescence which is measured. This test method can sensitively measure only the intracellular calcium concentration change because any change that may occur outside the cells is masked by a masking dye.
The experimental procedure was as follows. One day before calcium measurement, CHO cells overexpressing hS1P1-hS1P5 were dispensed into a 96-well plate (bottom clear black well) in 3×10^4 cells per well and cultured at 37° C. under 5% carbon dioxide condition for one day. 100 μl of calcium dyes mixed with Assay Buffer (1×HBSS, 20 mM HEPES, 2.5 mM probenecid, pH 7.4) were dispensed into culture solution in well and cultured at 37° C. for one hour. Test compounds were dissolved in 100% DMSO to prepare 1 μl solution per each concentration, and each solution was mixed with 199 μl Assay Buffer such that the concentrations were […]. The plate cultured with the calcium dyes was put into FlaxstationII (Molecular Devices), and the prepared test compounds (the final concentrations of the test compounds: 10, 1, 0.1, 0.01, 0.001 and 0.0001 μM) were programmed to be automatically inoculated in 50 μl per each well. For a total of 90 seconds, relative fluorescence unit (RFU) values were measured. The value of Reference (S1P substance 1 μM) deducting the blank value was set as 100%, and EC50 values of the test compounds were calculated by prism.

T1 sequence (P21453 whole entry): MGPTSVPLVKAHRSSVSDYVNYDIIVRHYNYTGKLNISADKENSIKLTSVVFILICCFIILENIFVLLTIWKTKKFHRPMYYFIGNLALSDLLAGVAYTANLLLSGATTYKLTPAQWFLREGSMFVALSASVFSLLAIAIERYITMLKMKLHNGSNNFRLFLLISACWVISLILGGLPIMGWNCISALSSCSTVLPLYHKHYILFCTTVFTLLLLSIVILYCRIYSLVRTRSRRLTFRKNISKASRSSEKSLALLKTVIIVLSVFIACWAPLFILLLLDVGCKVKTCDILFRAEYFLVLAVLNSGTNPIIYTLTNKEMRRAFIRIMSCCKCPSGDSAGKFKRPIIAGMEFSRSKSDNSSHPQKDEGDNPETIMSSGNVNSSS

Row | Structure (SMILES) | EC50 [nM]
1 | CC(C)n1nc(Cl)c2cc(COc3ccc4c(c3)OCC(CN3CC(C(=O)O)C3)=C4)ccc21 [Example 2, 1-[7-(3-chloro-1-isopropyl-1H-indazol-5-ylmethoxy)-2H-chromene-3-ylmethyl]-azetidin-3-carboxylic acid] | 2.09
2 | CCCn1nc2ccc(COc3ccc4c(c3)OCC(CN3CC(C(=O)O)C3)=C4)cc2c1Cl [Example 3, 1-[7-(3-chloro-2-propyl-2H-indazol-5-ylmethoxy)-2H-chromene-3-ylmethyl]-azetidin-3-carboxylic acid] | 70.8
3 | CC(C)n1nc(Cl)c2cc(COc3ccc4c(c3)OCC(CN3CCC[C@@H](C(=O)O)C3)=C4)ccc21 [Example 5, (R)-1-[7-(3-chloro-1-Isopropyl-1H-indazol-5-ylmethoxy)-2H-chromene-3-ylmethyl]-piperidin-3-carboxylic acid] | 11
4 | CC(C)n1nc(Cl)c2cc(COc3ccc4c(c3)OCC(CN3CCC[C@H](C(=O)O)C3)=C4)ccc21 [Example 6, (S)-1-[7-(3-chloro-1-H-isopropyl-1H-indazol-5-ylmethoxy)-2H-chromene-3-ylmethyl]-piperidin-3-carboxylic acid] | 12.9
5 | CC(C)n1nc(Cl)c2cc(COc3ccc4c(c3)OCC(CN3CC[C@H](C(=O)O)C3)=C4)ccc21 [Example 7, (S)-1-[7-(3-chloro-1-H-isopropyl-1H-indazol-5-ylmethoxy)-2H-chromene-3-ylmethyl]-pyrrolidin-3-carboxylic acid] | 5.75
6 | CC(C)n1nc(Cl)c2cc(COc3ccc4c(c3)OCC(CN3CC(CCl)(C(=O)O)C3)=C4)ccc21 [Example 8, 1-[7-(3-chloro-1-isopropyl-1H-indazol-5-ylmethoxy)-2H-chromene-3-ylmethyl]-chloromethyl-azetidin-3-carboxylic acid] | 6.31
7 | CC(C)n1nc(Cl)c2cc(COc3ccc4c(c3)OCC(CN3CC[C@@H](C(=O)O)C3)=C4)ccc21 [Example 9, (R)-1-[7-(3-chloro-1-Isopropyl-1H-indazol-5-ylmethoxy)-2H-chromene-3-ylmethyl]-pyrrolidin-3-carboxylic acid] | 14.4
8 | CC1=C(CN2CCC(C(=O)O)CC2)COc2cc(OCc3ccc4c(c3)c(Cl)nn4C(C)C)ccc21 [Example 10, 1-[7-(3-chloro-1-Isopropyl-1H-indazol-5-ylmethoxy)-4-methyl-2H-chromene-3-ylmethyl]-piperidin-4-carboxylic acid] | 2.75
9 | CC(C)n1nc(Cl)c2cc(COc3ccc4c(c3)OCC(CN3CCC(C(=O)O)CC3)=C4Cl)ccc21 [Example 11, 1-[4-chloro-7-(3-chloro-1-H-isopropyl-1H-indazol-5-ylmethoxy)-2H-chromene-3-ylmethyl]-piperidin-4-carboxylic acid] | 8.32
10 | CC(C)n1nc(Cl)c2cc(COc3cc(F)c4c(c3)OCC(CN3CCC(C(=O)O)CC3)=C4)ccc21 [Example 12, 1-[7-(3-chloro-1-H-isopropyl-1H-indazol-5-ylmethoxy)-5-fluoro-2H-chromene-3-ylmethyl]-piperidin-4-carboxyl acid] | 14.4
11 | CCCn1nc(Cl)c2cc(COc3ccc4c(c3)OCC(CN3CC(C(=O)O)C3)=C4)ccc21 [Example 16, 1-[7-(3-chloro-1-propyl-1H-indazol-5-ylmethoxy)-2H-chromene-3-ylmethyl]-azetidin-3-carboxylic acid] | 43.6
12 | CCCn1nc(Cl)c2cc(COc3ccc4c(c3)OCC(CN3CCC(C(=O)O)CC3)=C4)ccc21 [Example 17, 1-[7-(3-chloro-1-propyl-1H-Indazol-5-ylmethoxy)-2H-chromene-3-ylmethyl]-piperidin-4-carboxylic acid] | 20.9
13 | O=C(O)C1CCN(CC2=Cc3ccc(OCc4ccc5c(c4)c(Cl)nn5CC4CC4)cc3OC2)CC1 [Example 18, 1-[7-(3-chloro-1-cyclopropylmethyl-1H-indazol-5-ylmethoxy)-2H-chromene-3-ylmethyl]-piperidin-4-carboxylic acid] | 64.6
14 | CC(C)Cn1nc(Cl)c2cc(COc3cc(F)c4c(c3)OCC(CN3CCC(C(=O)O)CC3)=C4)ccc21 [Example 20, 1-[7-(3-chloro-1-isobutyl-1H-indazol-5-ylmethoxy)-5-fluoro-2H-chromene-3-ylmethyl]-piperidin-4-carboxylic acid] | 5.13

Further lines, results first:

Row | EC50 [nM] | Structure (SMILES)
15 | 4.07 | CC(C)n1nc(Cl)c2cc(COc3ccc4c(c3)OCC(CN(C)CC(=O)O)=C4)ccc21 [Example 1, {[7-(3-chloro-1-isopropyl-1H-indazol-5-ylmethoxy)-2H-chromene-3-ylmethyl]-methyl-amino}-acetic acid]
16 | 9.12 | CC(C)n1nc(Cl)c2cc(COc3ccc4c(c3)OCC(CN3CCC(C(=O)O)CC3)=C4)ccc21 [Example 4, 1-[7-(3-chloro-1-isopropyl-1H-indazol-5-ylmethoxy)-2H-chromene-3-ylmethyl]-piperidin-4-carboxylic acid]
17 | 17.4 | CC(C)n1nc(C(F)(F)F)c2cc(COc3ccc4c(c3)OCC(CN3CCC(C(=O)O)CC3)=C4)ccc21 [Example 13, 1-[7-(1-Isopropyl-3-trifluoromethyl-1H-indazol-5-ylmethoxy)-2H-chromene-3-ylmethyl]-piperidin-4-carboxylic acid]
18 | 12 | CCc1nn(C(C)C)c2ccc(COc3ccc4c(c3)OCC(CN3CCC(C(=O)O)CC3)=C4)cc12 [Example 14, 1-[7-(1-H-isopropyl-3-ethyl-1H-indazol-5-ylmethoxy)-2H-chromene-3-ylmethyl]-piperidin-4-carboxylic acid]
19 | 6.31 | CC(C)n1nc(Cl)c2cc(COc3ccc4c(c3)OCC(CN3CCCC(C(=O)O)CC3)=C4)ccc21 (stereo not drawn) [Example 15, 1-[7-(3-chloro-1-isopropyl-1H-indazol-5-ylmethoxy)-2H-chromene-3-ylmethyl]-azepane-4-carboxylic acid]
20 | 70.8 | O=C(O)C1CCN(CC2=Cc3c(F)cc(OCc4ccc5c(c4)c(Cl)nn5C4CCCC4)cc3OC2)CC1 [Example 19, 1-[7-(3-chloro-1-cyclopentyl-1H-indazol-5-ylmethoxy)-5-fluoro-2H-chromene-3-ylmethyl]-piperidin-4-carboxylic acid]
21 | 14.4 | CC(C)Cn1nc(Cl)c2cc(COc3cc(F)c4c(c3)OCC(CN3CCCC(C(=O)O)CC3)=C4)ccc21 (stereo not drawn) [Example 21, 1-[7-(3-chloro-1-Isobutyl-1H-indazol-5-ylmethoxy)-5-fluoro-2H-chromene-3-ylmethyl]-azepane-4-carboxylic acid]
